Measured values taken from PubChem BioAssay AID330 (DTP/NCI, 2004).
“And” between values parts separate entries of the source, which are not always exact repeats. Equal values may be shown once. Inconclusive results and toxic doses are left out. How the source made its calls: active means survival T/C of 150% or more; inactive means T/C below 125% in these data. Peptide text beside a SMILES is read from it. * marks the point of attachment. Cbz = O=C(OCc1ccccc1)*; OBn = c1ccc(CO*)cc1

Tested on: P388 leukemia ip, CD2F1 mice, survival T/C
Assay: NCI In Vivo Anticancer Drug Screen. Data for tumor model P388 Leukemia (intraperitoneal) in CD2F1 (CDF1) mice
Conditions: endpoint: median survival time, higher = longer survival
Summary of the method: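 Mice carrying the transplanted tumor received test compound or vehicle. Survival was recorded in each group, and the value is the treated-group measurement divided by that of the vehicle-treated control group.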

[1] = dose: 60.0 mg/kg/injection, schedule: Q01DX005 (ip), vehicle: saline with Tween-80
[2] = dose: 120.0 mg/kg/injection, schedule: Q01DX005 (ip), vehicle: saline with Tween-80
[3] = dose: 240.0 mg/kg/injection, schedule: Q01DX005 (ip), vehicle: saline with Tween-80
[4] = dose: 50.0 mg/kg/injection, schedule: Q01DX009 (ip), vehicle: saline
[5] = dose: 100.0 mg/kg/injection, schedule: Q01DX009 (ip), vehicle: saline
[6] = dose: 200.0 mg/kg/injection, schedule: Q01DX009 (ip), vehicle: saline
[7] = dose: 50.0 mg/kg/injection, schedule: Q01DX009 (ip), vehicle: saline with Tween-80
[8] = dose: 100.0 mg/kg/injection, schedule: Q01DX009 (ip), vehicle: saline with Tween-80
[9] = dose: 50.0 mg/kg/injection, schedule: Q01DX005 (ip), vehicle: Klucel (hydroxypropylcellulose) (HPC)
[10] = dose: 100.0 mg/kg/injection, schedule: Q01DX005 (ip), vehicle: Klucel (hydroxypropylcellulose) (HPC)
[11] = dose: 25.0 mg/kg/injection, schedule: Q01DX009 (ip), vehicle: Klucel (hydroxypropylcellulose) (HPC)
[12] = dose: 50.0 mg/kg/injection, schedule: Q01DX009 (ip), vehicle: Klucel (hydroxypropylcellulose) (HPC)
[13] = dose: 12.5 mg/kg/injection, schedule: Q01DX009 (ip), vehicle: saline with Tween-80
[14] = dose: 25.0 mg/kg/injection, schedule: Q01DX009 (ip), vehicle: saline with Tween-80
[15] = dose: 25.0 mg/kg/injection, schedule: Q01DX009 (ip), vehicle: other
[16] = dose: 50.0 mg/kg/injection, schedule: Q01DX009 (ip), vehicle: other
[17] = dose: 100.0 mg/kg/injection, schedule: Q01DX009 (ip), vehicle: other
[18] = dose: 200.0 mg/kg/injection, schedule: Q01DX009 (ip), vehicle: other
[19] = dose: 25.0 mg/kg/injection, schedule: Q01DX005 (ip), vehicle: Klucel (hydroxypropylcellulose) (HPC)

Measured: T/C

COc1c(OC)c(C2(O)C(=O)N(C)c3ccccc32)c2c(c1C1(O)C(=O)N(C)c3ccccc31)OCO2 (stereo not drawn)
inactive: [1] 95 % of control | [2] 90 % of control | [3] 89 % of control

CC(C)(C)c1cc(-c2cc(C(C)(C)C)nc(N)n2)nc(N)n1
inactive: dose: 60.0 mg/kg/injection, schedule: Q01DX005 (ip), vehicle: saline 87 % of control | dose: 120.0 mg/kg/injection, schedule: Q01DX005 (ip), vehicle: saline 105 % of control

N#C/C=C1\C=CC(O)C(O)C1OC1OC(CO)C(O)C(O)C1O (stereo not drawn)
inactive: dose: 6.0 mg/kg/injection, schedule: Q01DX009 (ip), vehicle: saline 103 % of control | dose: 12.0 mg/kg/injection, schedule: Q01DX009 (ip), vehicle: saline 103 % of control | dose: 24.0 mg/kg/injection, schedule: Q01DX009 (ip), vehicle: saline 100 % of control | dose: 48.0 mg/kg/injection, schedule: Q01DX009 (ip), vehicle: saline 105 % of control

Cc1ccc(S(=O)(=O)ONNc2nccc3ccccc23)cc1
inactive: dose: 100.0 mg/kg/injection, schedule: Q04DX002 (ip), vehicle: saline 103 % of control | dose: 200.0 mg/kg/injection, schedule: Q04DX002 (ip), vehicle: saline 96 % of control | dose: 400.0 mg/kg/injection, schedule: Q04DX002 (ip), vehicle: saline 97 % of control

S=C1N(c2ccc(Cl)cc2)C2=C(N=Nc3cc(Cl)ccc3Cl)C(=Nc3ccccc3S2)N1c1ccccn1
inactive: dose: 15.0 mg/kg/injection, schedule: Q01DX005 (ip), vehicle: saline with Tween-80 100 % of control | dose: 30.0 mg/kg/injection, schedule: Q01DX005 (ip), vehicle: saline with Tween-80 110 % of control | [1] 106 % of control and 110 % of control

COc1c2occc2c(OC)c2/c(=N/O)cc(C)oc12
inactive: [4] 107 % of control | [5] 98 % of control | [6] 97 % of control

CCCCc1c(O)c(N=NC(N)=S)c2ccccc2c1O
inactive: dose: 50.0 mg/kg/injection, schedule: Q01DX005 (ip), vehicle: saline with Tween-80 95 % of control | dose: 100.0 mg/kg/injection, schedule: Q01DX005 (ip), vehicle: saline with Tween-80 94 % of control | dose: 200.0 mg/kg/injection, schedule: Q01DX005 (ip), vehicle: saline with Tween-80 91 % of control

O=C(CNC(=O)Nc1ccc(Cl)c(Cl)c1)N/N=C/c1ccc2c(c1)OCO2
inactive: [7] 91 % of control | [8] 90 % of control | dose: 200.0 mg/kg/injection, schedule: Q01DX009 (ip), vehicle: saline with Tween-80 89 % of control

COc1ccc(C(O)(CCN2CCOCC2)c2ccc3c(c2)OCO3)cc1 (stereo not drawn)
inactive: [9] 90 % of control | [10] 91 % of control

Cc1ccc(SSCCN)cc1
inactive: dose: 12.5 mg/kg/injection, schedule: Q01DX005 (ip), vehicle: saline 104 % of control | dose: 25.0 mg/kg/injection, schedule: Q01DX005 (ip), vehicle: saline 104 % of control | dose: 50.0 mg/kg/injection, schedule: Q01DX005 (ip), vehicle: saline 108 % of control and 110 % of control

CC(C)SC(=S)Nc1cc(C(F)(F)F)ccc1Cl
inactive: [4] 100 % of control | [5] 101 % of control | [6] 99 % of control

CCOc1nc(N)nc(C)c1N=Nc1ccc(Cl)cc1
inactive: dose: 60.0 mg/kg/injection, schedule: Q01DX005 (ip), vehicle: Klucel + Tween-80 100 % of control | dose: 120.0 mg/kg/injection, schedule: Q01DX005 (ip), vehicle: Klucel + Tween-80 101 % of control

C=CCNSc1cccc([N+](=O)[O-])c1
inactive: dose: 6.25 mg/kg/injection, schedule: Q01DX009 (ip), vehicle: Klucel (hydroxypropylcellulose) (HPC) 121 % of control | dose: 12.5 mg/kg/injection, schedule: Q01DX009 (ip), vehicle: Klucel (hydroxypropylcellulose) (HPC) 120 % of control | [11] 121 % of control | [12] 102 % of control and 103 % of control and 115 % of control

CCOC(=O)c1nc(C(Br)(Br)Br)[nH]c(=O)c1C
inactive: dose: 6.25 mg/kg/injection, schedule: Q01DX009 (ip), vehicle: distilled water + Tween-80 102 % of control | dose: 12.5 mg/kg/injection, schedule: Q01DX009 (ip), vehicle: distilled water + Tween-80 113 % of control | dose: 25.0 mg/kg/injection, schedule: Q01DX009 (ip), vehicle: distilled water + Tween-80 116 % of control | dose: 50.0 mg/kg/injection, schedule: Q01DX009 (ip), vehicle: distilled water + Tween-80 113 % of control | dose: 100.0 mg/kg/injection, schedule: Q01DX009 (ip), vehicle: distilled water + Tween-80 113 % of control

NS(=O)(=O)c1ccc(NC(=S)Nc2ccccc2C(F)(F)F)cc1
inactive: dose: 50.0 mg/kg/injection, schedule: Q01DX009 (ip), vehicle: gum acacia 92 % of control | dose: 100.0 mg/kg/injection, schedule: Q01DX009 (ip), vehicle: gum acacia 109 % of control | dose: 200.0 mg/kg/injection, schedule: Q01DX009 (ip), vehicle: gum acacia 100 % of control

CC=C=CCN(C)Cc1ccccc1
inactive: dose: 6.25 mg/kg/injection, schedule: Q01DX009 (ip), vehicle: saline 107 % of control | dose: 12.5 mg/kg/injection, schedule: Q01DX009 (ip), vehicle: saline 94 % of control | dose: 25.0 mg/kg/injection, schedule: Q01DX009 (ip), vehicle: saline 109 % of control | dose: 50.0 mg/kg/injection, schedule: Q04DX003 (ip), vehicle: Klucel (hydroxypropylcellulose) (HPC) 108 % of control | dose: 100.0 mg/kg/injection, schedule: Q04DX003 (ip), vehicle: Klucel (hydroxypropylcellulose) (HPC) 88 % of control

O=C(NC(CO)C(=O)N1CCCC1C(=O)OCc1ccccc1)OCc1ccccc1 (stereo not drawn) (Cbz-Ser-Pro-OBn; configuration not given here)
inactive: [9] 96 % of control | [10] 93 % of control | dose: 200.0 mg/kg/injection, schedule: Q01DX005 (ip), vehicle: Klucel (hydroxypropylcellulose) (HPC) 92 % of control

CCCCNC(=O)ON1C(=O)c2ccccc2C1=O
inactive: dose: 1.56 mg/kg/injection, schedule: Q01DX009 (ip), vehicle: saline with Tween-80 105 % of control | dose: 3.12 mg/kg/injection, schedule: Q01DX009 (ip), vehicle: saline with Tween-80 105 % of control | dose: 6.25 mg/kg/injection, schedule: Q01DX009 (ip), vehicle: saline with Tween-80 102 % of control and 117 % of control | [13] 110 % of control and 113 % of control | [14] 119 % of control

CCCCCCCCN1C(=O)c2ccccc2C1=O
inactive: [15] 109 % of control | [16] 103 % of control | [17] 109 % of control | [18] 98 % of control

CN(C)c1ccc(/C=C/c2ccnc3ccc(Cl)cc23)cc1
inactive: [14] 118 % of control

Nc1ccc2ccc(O)cc2c1
inactive: [13] 100 % of control | [14] 100 % of control | [7] 100 % of control | [8] 98 % of control

Clc1nc(C(Cl)Cl)nc2sc3c(c12)CCCC3
inactive: [1] 98 % of control | [2] 94 % of control | [3] 96 % of control

Cc1ccc(C2(c3ccc(C)cc3)CCCCCC2=O)cc1
inactive: [19] 87 % of control | [9] 90 % of control | [10] 97 % of control

CSCC(CO)NC(=O)/C=C/c1c(C)[nH]c(=O)[nH]c1=O (stereo not drawn)
inactive: [16] 86 % of control and 101 % of control | [17] 89 % of control and 111 % of control | [18] 94 % of control | dose: 400.0 mg/kg/injection, schedule: Q01DX009 (ip), vehicle: other 88 % of control

COc1ccc(S(=O)(=O)NN)cc1
inactive: [15] 106 % of control | [16] 103 % of control | [17] 104 % of control | [18] 106 % of control

O=S(=O)(c1ccc(N=C=S)cc1)c1ccc(N=C=S)cc1
inactive: [19] 112 % of control

Nn1c(=O)[nH][nH]c1=O
inactive: [11] 93 % of control | [12] 104 % of control | dose: 100.0 mg/kg/injection, schedule: Q01DX009 (ip), vehicle: Klucel (hydroxypropylcellulose) (HPC) 96 % of control | dose: 200.0 mg/kg/injection, schedule: Q01DX009 (ip), vehicle: Klucel (hydroxypropylcellulose) (HPC) 93 % of control

N#CC(=N)C(C#N)=Nc1c(O)[nH]c2ccc(Br)cc12
inactive: [4] 100 % of control | [5] 94 % of control | [6] 91 % of control

NC(CCCCCCCCCCCCC(N)C(=O)c1ccccc1)C(=O)c1ccccc1 (stereo not drawn)
inactive: [1] 101 % of control | [2] 93 % of control | [3] 93 % of control
